The text below walks through data of patent US10323019B2, “Pyrazolylaminobenzimidazole derivatives as JAK inhibitors” (Eli Lilly and Company, priority 2016, dated 2019).

Read-outs that look alike come from different tables or passages of the source.

Broadly, the IC50 is the concentration that inhibits the measured activity by half. A higher IC50 goes with a need for much substance. The term inhibition denotes the relative decrease from the control value, in per cent.

One experiment addresses JAK3 (Homo sapiens (Human), UniProt P52333). Nature of the experiment: JAK LanthaScreen Kinase Assay (TR-FRET), JAK3 in vitro enzyme assay. As to conditions: 20.0 μM ATP. The class given is biochemical. On the procedure:
(§1) The JAK LanthaScreen™ Kinase Assay (Invitrogen) is used to determine the ability of test compounds to inhibit JAK1, JAK2, and JAK3 kinase activity. These are TR-FRET assay formats that use long-lifetime terbium labeled antibody as the donor species and GFP-STAT1 as the acceptor species. Use the TR-FRET ratio to monitor JAK kinase activity where an increase in phosphorylation of the GFP-STAT1 results in an increase in the TR-FRET ratio. Perform the kinase reaction using a 12.5 μl reaction volume in shallow black 384-well Proxiplate®. Add reagents to obtain final reaction conditions of […], 1.76 mM Triton X-100, ATP (20.0 μM for JAK1 and JAK3 or 5 μM for JAK2) enzyme assays, 10.0 mM MgCl2, 1 mM EGTA and 0.01% Brij-35, […] GFP-STAT1, 14 nM JAK1 enzyme for JAK1, 1.0 nM for JAK2 or 2.5 nM for JAK3 enzyme assays, and 4% DMSO and serial dilutions of test compound (diluted 1:3 from 20,000 to 1 nM). Following ATP/GFP-STAT1 addition, centrifuge the assay plates for 1 minute at 1000 revolutions per minute (RPM). Allow the plates to incubate at RT for 60 minutes and then add 12.5 μl of a stopping buffer containing 20 mM EDTA, 2 nM Terbium-anti-phosphorylated Signal Transducers and Activators of Transcription [phosphorylation Tyrosine 701 amino acid] […] Use ACTIVITYBASE® 4.0 to fit the percent inhibition and ten-point compound concentration data to a four-parameter logistic equation.

Experiment [1] concerns paw swelling in Lewis rats. Nature of the experiment: Rat collagen-induced arthritis (CIA) model. The class given is in vivo. On the procedure: Rat Collagen-Induced Arthritis (CIA) Model
This protocol uses Lewis rats (weight 150-175 grams) from Charles River. On day 0, anesthetize rats with Isoflurane. On day 1, immunize intradermally with collagen emulsion in two sites on the lower lumbar region, above the base of the tail. Dose volume is a minimum of 0.4 mL per injection site. On day 8, anesthetize rats with Isoflurane and immunize intradermally with collagen emulsion in two sites on the lower lumbar region, above the base of the tail. Enroll rats into treatment groups on day 12, based on inflammation (redness and/or swelling) in their hind paws. Randomize animals for Treatment Phase based on ankle measurement values and body weight using block randomization allocation tool. Record ankle swelling on days 1, 8, and 11 and then three times per week following enrollment up to and including the day of necropsy. Dose compounds orally once a day starting on day 12 (after randomization) up to day 25. The compounds of Examples 6 and 7 were evaluated in the protocol essentially as described above.

Experiment [2] concerns the target T1, JAK1 (Homo sapiens (Human), UniProt P23458). Nature of the experiment: JAK LanthaScreen Kinase Assay (TR-FRET), JAK1 in vitro enzyme assay. The class given is biochemical. As to conditions: 20.0 μM ATP. As to the method:
as §1
Background: In TR-FRET formats the signal depends on donor and acceptor labels being close together.

Experiment [3] deals with T1, JAK1. Nature of the experiment: Human whole blood assay: pSTAT3 (JAK1) in lymphocytes, IL6 stimulated. The class given is cell-based. Particulars: IL6, pSTAT3 in CD4+ lymphocytes. The source says:
(§2) Human Whole Blood Assays: Determination of pSTAT3 (JAK1) and pSTAT5 (JAK2) in Lymphocytes and Monocytes
(§3) Human whole blood (HWB) assays were developed and validated to determine the JAK1 and JAK2 selectivity of test compounds.
(§4) Dilute the test compounds, 10 points, (1:3) in DMSO 100% and a step down in PBS+0.1% BSA. Use Tofacitinib as a reference compound in each plate, as well as a maximum signal (stimulated wells) and a minimum signal (no stimulated wells) in order to normalize data. Obtain a pool of HWB from 4 different healthy donors. Plate the blood in a 96 well plate using a Tecan Evo 96w and incubate with test compounds for 1 h at RT. After this time of incubation, stimulate HWB with both IL6 (206-IL, R&D System) and GM-CSF (PHC2015, Life Technologies) for 15 more minutes. Add a viability dye (65-0865, eBiosicience) (1:1000) using a Tecan Evo 96w (5×mix).
(§5) The final concentrations in the assay are the following: 100 (μM for compounds, 50 μM for Tofacitinib, 0.1 μg/mL IL6, 0.038 μg/mL GM-CSF and 1% DMSO. Lyse and fix HWB using a Lyse/fix buffer (558049, Becton Dickinson) by adding 900 μL of lysis buffer using Tecan Evo 96w (mix 10× high speed). Incubate HWB in bath at 37° C. for 10 minutes. Centrifuge HWB at 500 G, 8 min and discard supernatant. Add cold MeOH using a Tecan Exo 96w in order to permeabilize cells. Incubate blood cells on ice during 30 min. After this, wash cells 2× using Staining buffer (554656, Becton Dickinson), spin at 3000 rpm, 2 min. discard supernatant, and add the following antibodies: Anti-Human CD4 PE, 1:100 (12-0048, eBioscience), Anti-Human CD33 eFluor® 450, 1:50 (48-0337, eBioscience), Phospho-STAT5 (Tyr694) (C71E5) Rabbit mAb, 1:100 (Alexa Fluor® 488 Conjugate) (3939, Cell Signaling) and Phospho-STAT3 (Tyr705) (D3A7) XP™ Rabbit mAb 1:200, (Alexa Fluor® 647 Conjugate) (4324, Cell Signaling). Incubate the antibodies for 1 h in dark at RT, then wash cells 2× and read on Cytometer Macsquant (Miltenyi Biotec). Gate the data on CD4+ (lymphocytes) and CD4Low CD33Hi (monocytes), to measure the fluorescence intensity from cells expressing pSTAT3 and pSTAT5, respectively. Analyze the data using FlowJo v 10 and then normalize the median of fluorescence versus maximum and minimum signal to determine the IC50s. Use Graph Pad Prism 5™ to represent the dose response curves.

In experiment [4] the target is JAK1 (Rattus norvegicus, UniProt G3V9W2). The experiment can be described thus: Rat PK/PD assay: rat whole blood ex vivo JAK1 activity (pSTAT3). The class given is in vivo. As to conditions: 30 mpk oral. As to the method: (§6) Male Wistar rats, 265-285 grams (Charles River) were used for oral gavage dosing. Dose the animals (Oral gavage) at 1.82 mL/kg (0.5 mL per 275 grams). Formulate the compounds in 1% HEC vehicle containing 0.25% Tween 80 and 0.05% antifoam with 1.1 molar equivalent of methanesulfonic acid to form an in situ salt. Formulate compounds once per week, and store at 4° C. At various time points, obtain rat whole blood via tail vain bleeding in Multivette 600 μl EDTA blood collection tubes (cat#151671100PK100, Sarstedt Inc) and use for ex vivo JAK1 and JAK2 assay. Aliquot 100 ul of blood from each rat into a 96-well round bottom plate. Stimulate whole blood by recombinant IL-6 ([…], and recombinant mouse GM-CSF (cat#415-ML, lot#, R&D) for 12 min at rt. After cytokine stimulation, add whole blood into Lyse/fix (cat#558049, lot#, BD) in minitube rack; mix well 5×. Incubate 10 min at rt. Spin minitube rack at 600 g for 4 min. Aspirate with 12-channel manifold. Transfer contents of minitube rack to 96 well round-bottom plates. Spin down the cells at 3000 rpm for 1 min and discard the supernatant. Mix the cells in the well with 100 ul ice-cold MeOH and incubated on ice for 30 min. Add 150 ul PBS+2% FCS into each well and spin down at 3000 rpm, 2 min. Wash cells with 2× of 250 ul PBS+2% FCS. For cell surface and intracellular staining, mix all antibodies and add into each well and incubate 1 hr at rt in dark. The antibodies used for staining are as following: pSTAT3, Alexa Fluor 647 (cat#4324s, lot, Cell Signaling); pSTAT5, Alexa Fluor 488 (cat#3939s, lot#, Cell Signaling), anti-rat CD4, V450 (cat#561579, lot#. BD); anti-rat CD11b, Percp eFluor710 (cat#12-0110-82, lot#, eBioscience) After staining cells with Abs, wash the plates twice with PBS+2% FCS and finally re-suspend in the same 150 ul of solution. Assess cell viability by Viability Dye 780 (cat#65-0865-14, lot#, eBioscience). Perform the cytometry assay using FORTESSA.

Experiment [5] has as its target JAK2 (Rattus norvegicus (Rat), UniProt Q62689). Nature of the experiment: Rat PK/PD assay: rat whole blood ex vivo JAK2 activity (pSTAT5). As to conditions: 30 mpk oral. The class given is in vivo. On the procedure:
as §6

Experiment [6] has as its target T2, JAK2 (Homo sapiens (Human), UniProt O60674). Nature of the experiment: JAK LanthaScreen Kinase Assay (TR-FRET), JAK2 in vitro enzyme assay. The class given is biochemical. As to conditions: 5 μM ATP. On the procedure:
as §1

For experiment [7], the target named is T2, JAK2. The experiment can be described thus: Human whole blood assay: pSTAT5 (JAK2) in monocytes, GM-CSF stimulated. It counts as cell-based. As to conditions: pSTAT5 in CD4Low CD33Hi monocytes.
Description: as §2, §3, §4, §5

The subject of experiment [8] is paw swelling and bone mineral density loss in Lewis rats. The experiment can be described thus: Rat adjuvant-induced arthritis (AIA) model. It counts as in vivo. Particulars: naïve rat as 100% inhibition. On the procedure:
Rat Adjuvant-Induced Arthritis (AIA) Model
The effects of compounds on polyarthritis inflammation and ankle joint bone erosion can be evaluated in a rat adjuvant-induced arthritis (AIA) model. Use Male Lewis rats with a mean body weight of 185 g for the study. Induce arthritis by intra-dermal injection located at the base of the tail with 100 μL of adjuvant suspended immunization emulsion oil. Randomize animals based on the mean paw thickness and body weight on day 10 into study groups with 8 rats in each group. Prepare compounds in 1% HEC/0.25% P80/0.05% AF in purified water and dose daily via oral gavage starting from day 11 post immunization for 14 days. Quantitate paw thickness with the caliper measurement on both ankles. Assess group differences using a one-way ANOVA followed by Dunnett's post-test for multiple comparisons against vehicle controls. The compound of Example 10 are evaluated in the protocol essentially as described above.

JAK3, sequence (P52333 whole entry): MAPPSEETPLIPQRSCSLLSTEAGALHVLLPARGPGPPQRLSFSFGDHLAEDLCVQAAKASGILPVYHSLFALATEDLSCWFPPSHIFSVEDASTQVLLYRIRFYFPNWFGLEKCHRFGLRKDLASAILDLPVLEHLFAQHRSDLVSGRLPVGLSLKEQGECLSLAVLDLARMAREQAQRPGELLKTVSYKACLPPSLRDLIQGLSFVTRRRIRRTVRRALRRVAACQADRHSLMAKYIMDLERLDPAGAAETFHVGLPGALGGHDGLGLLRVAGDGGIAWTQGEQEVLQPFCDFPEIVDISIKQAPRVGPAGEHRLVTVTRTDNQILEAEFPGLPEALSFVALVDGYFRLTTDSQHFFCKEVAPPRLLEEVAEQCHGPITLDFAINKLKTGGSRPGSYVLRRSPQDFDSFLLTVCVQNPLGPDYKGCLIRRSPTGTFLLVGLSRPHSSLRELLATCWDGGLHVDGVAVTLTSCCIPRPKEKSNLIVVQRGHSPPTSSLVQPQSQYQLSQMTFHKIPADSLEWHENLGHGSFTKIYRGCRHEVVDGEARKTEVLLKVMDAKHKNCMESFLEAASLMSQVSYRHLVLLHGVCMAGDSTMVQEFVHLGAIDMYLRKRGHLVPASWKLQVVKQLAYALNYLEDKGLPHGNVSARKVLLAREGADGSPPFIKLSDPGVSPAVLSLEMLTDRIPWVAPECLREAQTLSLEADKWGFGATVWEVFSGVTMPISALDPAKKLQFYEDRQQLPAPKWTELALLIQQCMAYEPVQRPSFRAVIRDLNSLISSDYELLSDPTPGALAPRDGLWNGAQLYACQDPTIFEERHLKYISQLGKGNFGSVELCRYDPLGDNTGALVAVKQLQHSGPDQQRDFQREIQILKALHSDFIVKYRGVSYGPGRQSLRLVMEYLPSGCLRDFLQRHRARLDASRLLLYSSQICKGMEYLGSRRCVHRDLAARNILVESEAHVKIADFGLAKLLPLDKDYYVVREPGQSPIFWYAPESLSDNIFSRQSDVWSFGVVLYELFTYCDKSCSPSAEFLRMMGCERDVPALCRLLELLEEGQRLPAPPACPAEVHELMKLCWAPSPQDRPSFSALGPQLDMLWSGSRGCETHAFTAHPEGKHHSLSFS
T1 sequence (P23458 whole entry): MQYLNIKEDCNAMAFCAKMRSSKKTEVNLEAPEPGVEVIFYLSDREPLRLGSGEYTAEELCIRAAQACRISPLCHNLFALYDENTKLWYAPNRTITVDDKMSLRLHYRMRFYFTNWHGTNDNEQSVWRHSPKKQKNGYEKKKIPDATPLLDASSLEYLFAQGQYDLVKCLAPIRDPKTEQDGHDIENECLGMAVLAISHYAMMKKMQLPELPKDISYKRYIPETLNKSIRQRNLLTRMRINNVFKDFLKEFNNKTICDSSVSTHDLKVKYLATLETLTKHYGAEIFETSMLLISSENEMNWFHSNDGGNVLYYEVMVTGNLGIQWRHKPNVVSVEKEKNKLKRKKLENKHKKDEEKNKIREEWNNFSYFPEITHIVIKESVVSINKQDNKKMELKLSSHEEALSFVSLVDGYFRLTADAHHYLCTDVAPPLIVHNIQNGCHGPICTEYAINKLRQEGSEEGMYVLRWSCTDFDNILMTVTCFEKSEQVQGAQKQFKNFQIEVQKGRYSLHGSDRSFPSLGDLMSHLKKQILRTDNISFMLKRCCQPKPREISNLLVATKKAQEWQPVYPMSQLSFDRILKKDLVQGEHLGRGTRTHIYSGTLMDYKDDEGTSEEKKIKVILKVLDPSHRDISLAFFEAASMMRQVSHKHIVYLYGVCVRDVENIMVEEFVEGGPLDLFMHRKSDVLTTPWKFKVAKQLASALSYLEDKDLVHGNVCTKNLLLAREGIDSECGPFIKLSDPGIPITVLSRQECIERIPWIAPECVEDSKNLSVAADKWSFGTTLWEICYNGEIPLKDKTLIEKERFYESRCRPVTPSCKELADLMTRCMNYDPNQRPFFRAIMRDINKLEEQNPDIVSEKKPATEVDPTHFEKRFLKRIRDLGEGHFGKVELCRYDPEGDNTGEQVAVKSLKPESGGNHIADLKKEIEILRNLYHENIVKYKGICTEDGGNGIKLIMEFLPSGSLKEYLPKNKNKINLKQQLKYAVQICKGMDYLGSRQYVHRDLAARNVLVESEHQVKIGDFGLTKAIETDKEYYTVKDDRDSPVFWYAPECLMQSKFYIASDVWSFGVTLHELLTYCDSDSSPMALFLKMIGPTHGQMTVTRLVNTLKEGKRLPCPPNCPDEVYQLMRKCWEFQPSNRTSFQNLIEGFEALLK
T2 sequence (O60674 whole entry): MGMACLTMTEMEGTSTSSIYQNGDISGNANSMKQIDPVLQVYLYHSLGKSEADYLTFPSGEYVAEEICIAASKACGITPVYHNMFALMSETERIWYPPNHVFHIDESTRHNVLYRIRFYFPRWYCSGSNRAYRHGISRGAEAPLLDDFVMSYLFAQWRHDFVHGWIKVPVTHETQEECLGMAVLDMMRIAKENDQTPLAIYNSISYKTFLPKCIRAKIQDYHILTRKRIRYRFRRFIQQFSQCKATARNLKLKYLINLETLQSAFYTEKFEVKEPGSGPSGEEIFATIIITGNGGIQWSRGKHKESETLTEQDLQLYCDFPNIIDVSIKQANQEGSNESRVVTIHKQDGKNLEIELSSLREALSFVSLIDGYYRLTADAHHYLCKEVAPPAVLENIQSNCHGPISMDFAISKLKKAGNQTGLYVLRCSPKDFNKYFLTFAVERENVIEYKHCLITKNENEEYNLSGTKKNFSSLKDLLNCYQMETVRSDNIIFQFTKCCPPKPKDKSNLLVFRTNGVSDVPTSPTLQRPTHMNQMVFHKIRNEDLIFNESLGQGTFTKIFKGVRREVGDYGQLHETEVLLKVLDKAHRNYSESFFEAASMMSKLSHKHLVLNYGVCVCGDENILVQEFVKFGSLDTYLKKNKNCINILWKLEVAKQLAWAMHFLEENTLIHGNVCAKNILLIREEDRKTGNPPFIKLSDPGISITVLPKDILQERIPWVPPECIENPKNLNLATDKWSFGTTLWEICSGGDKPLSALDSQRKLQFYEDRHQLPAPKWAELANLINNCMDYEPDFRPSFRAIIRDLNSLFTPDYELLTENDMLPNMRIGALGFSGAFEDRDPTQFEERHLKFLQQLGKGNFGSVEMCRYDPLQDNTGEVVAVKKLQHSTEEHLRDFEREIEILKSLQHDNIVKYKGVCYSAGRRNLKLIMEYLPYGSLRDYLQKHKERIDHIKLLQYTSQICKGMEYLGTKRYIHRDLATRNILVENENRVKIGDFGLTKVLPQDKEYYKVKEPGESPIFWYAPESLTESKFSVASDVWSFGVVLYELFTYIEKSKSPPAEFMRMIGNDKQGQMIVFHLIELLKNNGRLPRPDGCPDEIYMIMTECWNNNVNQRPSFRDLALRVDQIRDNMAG
JAK1 (Rattus norvegicus, UniProt G3V9W2), sequence (G3V9W2 1-1153): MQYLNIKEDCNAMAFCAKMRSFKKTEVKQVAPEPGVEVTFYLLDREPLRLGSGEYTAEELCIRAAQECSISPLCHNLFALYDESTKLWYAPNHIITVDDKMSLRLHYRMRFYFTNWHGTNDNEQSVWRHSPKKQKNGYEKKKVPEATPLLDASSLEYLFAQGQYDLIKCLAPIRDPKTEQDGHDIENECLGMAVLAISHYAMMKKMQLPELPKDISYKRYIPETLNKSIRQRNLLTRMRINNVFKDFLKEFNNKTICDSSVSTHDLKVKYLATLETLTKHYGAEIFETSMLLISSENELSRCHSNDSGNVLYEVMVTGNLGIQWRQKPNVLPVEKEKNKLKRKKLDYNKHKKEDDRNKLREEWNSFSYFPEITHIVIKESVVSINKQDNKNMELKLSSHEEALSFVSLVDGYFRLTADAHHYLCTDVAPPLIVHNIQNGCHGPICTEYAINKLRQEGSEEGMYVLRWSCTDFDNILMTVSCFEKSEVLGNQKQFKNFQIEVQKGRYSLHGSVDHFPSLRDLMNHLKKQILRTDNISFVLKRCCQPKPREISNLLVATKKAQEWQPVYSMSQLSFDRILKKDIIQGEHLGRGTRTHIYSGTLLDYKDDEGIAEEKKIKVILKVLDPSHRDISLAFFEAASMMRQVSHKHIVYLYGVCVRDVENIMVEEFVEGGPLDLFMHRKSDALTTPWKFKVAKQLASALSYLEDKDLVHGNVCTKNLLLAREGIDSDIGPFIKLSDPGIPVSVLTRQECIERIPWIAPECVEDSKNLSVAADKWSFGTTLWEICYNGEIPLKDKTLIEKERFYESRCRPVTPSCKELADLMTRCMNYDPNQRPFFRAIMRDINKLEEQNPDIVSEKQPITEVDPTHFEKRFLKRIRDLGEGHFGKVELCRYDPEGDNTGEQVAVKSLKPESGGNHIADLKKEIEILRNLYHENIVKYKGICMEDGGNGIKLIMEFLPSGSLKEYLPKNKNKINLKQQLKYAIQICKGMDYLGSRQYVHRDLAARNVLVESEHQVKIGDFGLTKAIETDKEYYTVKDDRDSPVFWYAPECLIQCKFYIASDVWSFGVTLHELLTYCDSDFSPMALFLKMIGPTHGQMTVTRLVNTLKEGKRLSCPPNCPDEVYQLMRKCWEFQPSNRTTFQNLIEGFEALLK

For the compound `CCn1nc(Nc2cc(OC3CCC(NC[C@@H](O)C(F)(F)F)CC3)cc3c2ncn3C)cc1C` (stereo in doubt) [Example 7], the figures for the IC50 against JAK3, on JAK1 [2] and on JAK1 [3] were 6160 ± 2020 nM, 5.43 ± 0.93 nM and 4170 ± 1870 nM, respectively. Moreover, in [1] (3 mpk oral once a day day 12 to 25, naïve rat as 100% inhibition), the “Rat paw swelling % inhibition at 3 mpk” value was 0%. The “Rat paw swelling % inhibition at 10 mpk” value in experiment [1] (10 mpk oral once a day day 12 to 25, naïve rat as 100% inhibition) was 69%. The “Rat paw swelling % inhibition at 30 mpk” value in experiment [1] (30 mpk oral once a day day 12 to 25, naïve rat as 100% inhibition) was 73%. The “JAK1 inhibition 2 hr post dosing” value at JAK1 [4] (2 hr post dosing) was found to be 70.7%. In addition, at JAK1 [4] (7 hr post dosing), the “JAK1 inhibition 7 hr post dosing” value was 61.0%.
As to `Cc1cc(Nc2cc(O[C@H]3CC[C@@H](NC[C@@H](O)C(F)(F)F)CC3)cc3c2ncn3C)nn1C[C@H](C)O` [Example 4, (2R)-1,1,1-Trifluoro-3-[(cis-4-{[4-({1-[(2S)-2-hydroxypropyl]-5-methyl-1H-pyrazol-3-yl}amino)-1-methyl-1H-benzimidazol-6-yl]oxy}cyclohexyl)amino]propan-2-ol], the inhibition at 30 mg/kg at JAK2 [5] (2 hr post dosing, read-out: JAK2 inhibition 2 hr post dosing) came out at 22.9%; at JAK2 [5] (7 hr post dosing, read-out: JAK2 inhibition 7 hr post dosing) it was 20.1%; on JAK1 [4] (2 hr post dosing, read-out: JAK1 inhibition 2 hr post dosing), 72%; on JAK1 [4] (7 hr post dosing, read-out: JAK1 inhibition 7 hr post dosing), 22.3%.
As to `Cn1cnc2c(Nc3cc[nH]n3)cc(O[C@H]3CC[C@@](C)(NC[C@@H](O)C(F)(F)F)CC3)cc21` [Example 8, (2R)-1,1,1-Trifluoro-3-[(cis-1-methyl-4-{[1-methyl-4-(1H-pyrazol-3-ylamino)-1H-benzimidazol-6-yl]oxy}cyclohexyl)amino]propan-2-ol], the IC50 stood at 1170 ± 470 nM against JAK3; 239 ± 150 nM against JAK2 [6]; 1.91 ± 0.75 nM on JAK1 [2]; 3130 ± 1100 nM on JAK1 [3]; 9630 ± 2520 nM against JAK2 [7].
In the case of `Cc1cc(Nc2cc(O[C@H]3CC[C@@H](NC[C@@H](O)C(F)F)CC3)cc3c2ncn3C)nn1C` [Example 9, (2R)-3-{[cis-4-({4-[(1,5-Dimethyl-1H-pyrazol-3-yl)amino]-1-methyl-1H-benzimidazol-6-yl}oxy)cyclohexyl]amino}-1,1-difluoropropan-2-ol], the IC50 on JAK3 was found to be 2140 ± 720 nM; against JAK2 [6], 767 ± 39 nM; against JAK1 [2] it was 5.35 ± 0.23 nM; against JAK1 [3] it was 4530 ± 2090 nM; on JAK2 [7], 16900 ± 4500 nM.
As to `Cn1cnc2c(Nc3ccn(-c4ccccn4)n3)cc(O[C@H]3CC[C@@H](NC[C@@H](O)C(F)(F)F)CC3)cc21` [Example 10, (2R)-1,1,1-Trifluoro-3-({cis-4-[(1-methyl-4-{[1-(pyridin-2-yl)-1H-pyrazol-3-yl]amino}-1H-benzimidazol-6-yl)oxy]cyclohexyl}amino)propan-2-ol], the IC50 came out at 660 ± 180 nM on JAK3; 220 ± 120 nM at JAK2 [6]; 1.49 ± 0.49 nM at JAK1 [2]; 1290 ± 640 nM at JAK1 [3]; 6860 ± 2130 nM on JAK2 [7]. Further, the results for the “% inhibition of BMD loss in paw” value in [8] (3 mpk oral daily for 14 days), in experiment [8] (10 mpk oral daily for 14 days) and in experiment [8] (30 mpk oral daily for 14 days) were 39%, 81% and 84%, respectively. Also, the “% inhibition of paw swelling” value in [8] (3 mpk oral daily for 14 days) amounted to 26%; in experiment [8] (10 mpk oral daily for 14 days), 63%; in [8] (30 mpk oral daily for 14 days), 73%.
